The results in this text go back to PubChem BioAssay (NCI).

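Each compound was tested at five concentrations against cells in 96-well plates for 48 hours. The concentration for full growth arrest is given as TGI.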

Among the test systems are HCC-2998 colon; HCT-15 colon; HOP-62 NSCLC; MALME-3M melanoma; NCI-H522 lung; OVCAR-4 ovarian; SK-MEL-2 melanoma; SK-MEL-28 melanoma; SK-MEL-5 melanoma; SN12C renal; SW-620 colon; UACC-257 melanoma; MOLT-4 leukemia.
Assay in all cases: NCI anticancer screen, dose series, 48 h

In the case of `CCC(=O)C(CCN1CCC2(CCCc3ccccc32)CC1)(c1ccccc1)c1ccccc1`, the TGI stood at 7.44 µM in the test with HCC-2998 colon; 15.1 µM in the test on HCT-15 colon; 8.91 µM in the test with HOP-62 NSCLC; 3.76 µM in the test on MALME-3M melanoma; 7.14 µM in the test with NCI-H522 lung; 18.7 µM in the test with OVCAR-4 ovarian. For the same compound, the TGI in the test on SK-MEL-2 melanoma turned out to be 4.34 µM; in the test with SK-MEL-28 melanoma, 14 µM; in the test with SK-MEL-5 melanoma, 2.9 µM; in the test on SN12C renal, 10.2 µM; with SW-620 colon, 12.9 µM; in the test on UACC-257 melanoma, 5.51 µM.
As to `CC1=NC(=Cc2ccccc2O)C(=O)N1n1c(-c2ccccc2)nc2ccccc2c1=O`, the TGI in the test with HCC-2998 colon, in the test with HCT-15 colon, in the test with HOP-62 NSCLC, in the test on MALME-3M melanoma, with MOLT-4 leukemia and with NCI-H522 lung was over 100 µM each time. Moreover, the TGI with OVCAR-4 ovarian is over 100 µM; in the test on SK-MEL-28 melanoma, over 100 µM; in the test with SK-MEL-5 melanoma, 61.4 µM; in the test on SN12C renal it was over 100 µM; in the test on SW-620 colon, over 100 µM; with UACC-257 melanoma, over 100 µM.
With `O=[N+]([O-])c1cccc2nc3ccccc3c(NCCCNc3c4ccccc4nc4cccc([N+](=O)[O-])c34)c12`, the TGI came out at 0.0223 µM in the test on HCC-2998 colon; 0.0844 µM in the test on HOP-62 NSCLC; 0.329 µM with MALME-3M melanoma; 0.0972 µM with MOLT-4 leukemia; 0.121 µM with NCI-H522 lung; 0.302 µM with OVCAR-4 ovarian. Besides, the TGI is 0.13 µM in the test on SK-MEL-2 melanoma; 0.181 µM with SK-MEL-28 melanoma; 0.0221 µM in the test on SK-MEL-5 melanoma; 0.0976 µM in the test on SN12C renal; over 100 µM in the test on SW-620 colon; 0.329 µM with UACC-257 melanoma.
With `CCCCc1ccc(-n2sc3ncc(C)cc3c2=O)cc1`, the TGI is over 100 µM with HCC-2998 colon; 59.1 µM in the test with HCT-15 colon; over 100 µM in the test on HOP-62 NSCLC; 90.1 µM with MALME-3M melanoma; over 100 µM with MOLT-4 leukemia; 40.6 µM in the test with NCI-H522 lung. For the same compound, the TGI in the test with OVCAR-4 ovarian is over 100 µM; in the test with SK-MEL-2 melanoma, over 100 µM; in the test on SK-MEL-28 melanoma it was over 100 µM; with SK-MEL-5 melanoma, 46.2 µM; with SN12C renal, 47.2 µM; in the test with SW-620 colon it was 78 µM.
`CCN(CC)c1ccc2c(c1)Oc1ccc(N(CC)CC)cc1C21Oc2ccccc2-c2c1c1ccccc1n2CC` (stereo unspecified): the TGI is over 100 µM in the test with HCC-2998 colon; over 100 µM in the test on HCT-15 colon; 9.27 µM in the test with MALME-3M melanoma; over 100 µM with MOLT-4 leukemia; 5.06 µM in the test on NCI-H522 lung; over 100 µM in the test with OVCAR-4 ovarian. Besides, the TGI was over 100 µM in the test with SK-MEL-28 melanoma; 25.3 µM with SK-MEL-5 melanoma; over 100 µM with SN12C renal; over 100 µM in the test with SW-620 colon; over 100 µM in the test with UACC-257 melanoma.
For `CC(C)(C)C1=CC(C)(n2[nH]c(=O)n(-c3ccccc3)c2=O)C=C(C(C)(C)C)C1=O`, the TGI in the test on HCC-2998 colon, in the test with HCT-15 colon, in the test on MALME-3M melanoma, in the test with NCI-H522 lung, in the test with OVCAR-4 ovarian and in the test with SK-MEL-2 melanoma was over 100 µM in each case. Further, the TGI with SK-MEL-28 melanoma, in the test with SK-MEL-5 melanoma, with SN12C renal, in the test on SW-620 colon and in the test on UACC-257 melanoma was over 100 µM each time.
As to `NS(=O)(=O)c1nnc(NS(=O)(=O)C(F)(F)F)s1`, the TGI in the test with HCC-2998 colon, in the test on HCT-15 colon, with HOP-62 NSCLC, in the test on MALME-3M melanoma, in the test with MOLT-4 leukemia and in the test on NCI-H522 lung was over 100 µM throughout. Also, the TGI in the test with OVCAR-4 ovarian, in the test on SK-MEL-2 melanoma, in the test with SK-MEL-28 melanoma and in the test on SW-620 colon was over 100 µM in each case.
In the case of `COc1cc(O)c2c(=O)c(O)c(-c3ccc(O)c(OC)c3)oc2c1`, the TGI with HCC-2998 colon was over 100 µM; with HCT-15 colon, over 100 µM; with MALME-3M melanoma, over 100 µM; in the test on MOLT-4 leukemia, over 25 µM; in the test with NCI-H522 lung, 6.21 µM; with SK-MEL-2 melanoma, over 100 µM. For the same compound, the TGI in the test with SK-MEL-5 melanoma is over 34.9 µM; in the test with SN12C renal, over 100 µM; with SW-620 colon, over 100 µM; in the test on UACC-257 melanoma it was over 100 µM.
`N#Cc1nc(-c2ccco2)oc1N`: the TGI in the test on HCC-2998 colon, in the test on HCT-15 colon, in the test on HOP-62 NSCLC, in the test with MALME-3M melanoma, with MOLT-4 leukemia and in the test on NCI-H522 lung was over 10 µM in each case. Further, the TGI in the test with OVCAR-4 ovarian, in the test with SK-MEL-28 melanoma, in the test with SK-MEL-5 melanoma, with SW-620 colon and in the test on UACC-257 melanoma was over 10 µM each time.
Take `CC(=O)C1=CN=C2C(=O)N(c3ccccc3)N(C)C12C` (stereo unspecified): the TGI in the test on HCC-2998 colon, in the test with HCT-15 colon, in the test with MALME-3M melanoma, in the test on MOLT-4 leukemia, in the test on NCI-H522 lung and with OVCAR-4 ovarian was over 100 µM in each case. In addition, the TGI in the test with SK-MEL-2 melanoma, with SK-MEL-5 melanoma, in the test on SN12C renal, with SW-620 colon and with UACC-257 melanoma was over 100 µM each time.
Consider `C/C(=C\CBr)CCC(Br)C(C)(C)Cl` (stereo unspecified), for which the TGI with HCT-15 colon, in the test on HOP-62 NSCLC, in the test on MALME-3M melanoma, with MOLT-4 leukemia, in the test with NCI-H522 lung and in the test with OVCAR-4 ovarian was over 100 µM in each case. Further, the TGI in the test with SK-MEL-2 melanoma, with SK-MEL-28 melanoma, in the test with SK-MEL-5 melanoma, in the test with SN12C renal, in the test on SW-620 colon and with UACC-257 melanoma was over 100 µM throughout.
`O=C(/C=C/c1ccc(Oc2cc(C(=O)/C=C/c3ccc(O)cc3)c(O)cc2O)cc1)c1ccc(O)cc1O`: the TGI in the test on HCT-15 colon was 19.4 µM; in the test with HOP-62 NSCLC, 15.5 µM; with MALME-3M melanoma, 26.6 µM; in the test with MOLT-4 leukemia, over 100 µM; in the test on NCI-H522 lung it was 19.1 µM; with OVCAR-4 ovarian, 28.3 µM. Besides, the TGI is 28.2 µM in the test with SK-MEL-2 melanoma; 7.07 µM with SK-MEL-28 melanoma; 17.1 µM in the test on SK-MEL-5 melanoma; 17 µM with SN12C renal; 19.8 µM in the test with SW-620 colon; 28.4 µM in the test with UACC-257 melanoma.
